Measured values from patent US20230382926A1, “COMPOUNDS AND USES THEREOF” (The University of The West Indies, priority 2022, published 2023).

Columns and labels:
MRSA = assay: Rescue concentration of substituted phenyl azaindole derivatives; format: cell-based, Staphylococcus aureus; settings: Amoxicillin fixed at 2 μg/mL
Procedure: (§1) The antibiotic adjuvant activity of the SPazaBIMs were evaluated in combination with representative antibiotics (representing 13 antibiotic classes) against the 19 pathogens strains listed in Table 3. To assess the adjuvant properties of the SP-azaBIM molecules, a modified checkerboard minimum inhibitory concentration assay was used. A fixed concentration of the respective antibiotic (susceptible breakpoint concentration) was mixed with a twofold dilution series of the test SP-azaBIM (FIG. 1). This was to determine the concentration of SP-azaBIM needed potentiate the antibiotic at a clinically susceptible breakpoint concentration. Antibiotic susceptible breakpoint concentrations for the respective bacteria were determined using Clinical Laboratory Standards Institute (CLSI) criteria M100 ED31.
(§2) In this study, only those antibiotics to which the bacterial was classed as resistant were included in the adjuvant assays. In this assay we recorded the rescue concentration of the SP-BIM for a respective antibiotic. The rescue concentration was defined as the concentration of the adjuvant that reduces the minimum inhibitory concentration (MIC) of an antibiotic to the susceptibility breakpoint.
(§3) Immediately prior to testing, the respective antibiotic and SP-azaBIM was dissolved in sterile deionised water at 20× the required test concentration. Each microtiter well was then inoculated with 180 μl of bacterial inoculum of 10^6 CFU/ml in ca-MHB, and 10 μl each if the antibiotic and SP-azaBIM was added to the plates. These plates were then incubated at 35° C. for 24 h under aerobic conditions. A similar method was followed for the fastidious pathogens except that they were cultured in ca-MHB with 5% sheep blood and 5% CO2.
(§4) Bacterial growth was visually inspected after the incubation period and the rescue concentration of the test SP-azaBIM was determined as the lowest concentration of the compound needed to reduce bacterial growth by 99.99% at the susceptible breakpoint concentration of the antibiotic. For example, CLSI states that Pseudomonas aeruginosa is susceptible to the Imipenem if the MIC is ≤2 μg mL^−1. If the bacteria can tolerate this concentration in vitro, then the bacteria has an intermediate or absolute resistance toward that antibiotic. The goal was to determine the concentration of SP-azaBIM needed to cause P. aeruginosa death at 2 μg mL^−1 of Imipenem therefore restoring susceptibility of the bacteria to toward the antibiotic.
(§5) Phenyl azaindole compounds are also tested for their adjuvant activities and the method is shown in Example 39.

[1] = test system: Carbapenem resistant Acinetobacter baumannii; assay: Broth microdilution minimum inhibitory concentration; format: cell-based; settings: compound alone
Procedure: (§6) Antibacterial activity of the synthesized compounds was determined following guidelines established by the Clinical and Laboratory Standards Institute M07-A10 (CLSI 2015), following the broth microdilution method. Briefly, the test articles were dissolved in 100% DMSO, diluted by 2-fold serial titrations in the same vehicle (100% DMSO), for a total of 11 concentrations. A 4 μL aliquot of each dilution was then added to 196 μL of broth medium seeded with the bacterial suspension in wells of a 96 well plate (bacterial count: 2×10^5 to 8×10^5 colony forming units/mL final). The highest test substance concentration was 1028 μg/mL, and the final vehicle concentration was 2 percent. Following incubation, the test plate was visually examined, and each well was scored for growth or complete inhibition of growth. The minimum inhibitory concentration was determined as the lowest concentration were no growth of the bacterial was observed. Each test article was assayed in duplicate.

[2] = test system: Multidrug resistant Pseudomonas aeruginosa; assay: as above; format: cell-based; settings: compound alone
Procedure: as §6

[3] = test system: Methicillin resistant Staphylococcus aureus; assay: as above; format: cell-based; settings: compound alone
Procedure: as §6

[4] = test system: Vancomycin resistant Enterococcus faecalis; assay: as above; format: cell-based; settings: compound alone
Procedure: as §6

[5] = test system: Carbapenem resistant Klebsiella pneumoniae; assay: as above; format: cell-based; settings: compound alone
Procedure: as §6

P. aeruginosa = assay: Rescue concentration of substituted phenyl azaindole derivatives; format: cell-based; settings: Imipenem fixed at 1 μg/mL
Procedure: as §1, §2, §3
Bacterial growth was visually inspected after the incubation period and the rescue concentration of the test SP-azaBIM was determined as the lowest concentration of the compound needed to reduce bacterial growth by 99.99% at the susceptible breakpoint concentration of the antibiotic. […] If the bacteria can tolerate this concentration in vitro, then the bacteria has an intermediate or absolute resistance toward that antibiotic. […]
as §5

K. pneumoniae = assay: as above; format: cell-based; settings: for Rescue concentration, K. pneumoniae Ciprofloxacin (1 μg/mL): Ciprofloxacin fixed at 1 μg/mL; for Rescue concentration, K. pneumoniae Imipenem (1 μg/mL): Imipenem fixed at 1 μg/mL
Procedure: as §1, §2, §3, §4, §5

| Structure (SMILES) | Rescue concentration, MRSA Amoxicillin (2 μg/mL) (MRSA) | MIC [1] | MIC [2] | MIC [3] | MIC [4] | MIC [5] | Rescue concentration, P. aeruginosa Imipenem (1 μg/mL) (P. aeruginosa) | Rescue concentration, K. pneumoniae Ciprofloxacin (1 μg/mL) (K. pneumoniae) | Rescue concentration, K. pneumoniae Imipenem (1 μg/mL) (K. pneumoniae) |
| --- | --- | --- | --- | --- | --- | --- | --- | --- | --- |
| O=[N+]([O-])c1ccccc1C(O)c1c[nH]c2ncccc12 (stereo not drawn) [Compound 2NO2-7aza-OH, (2-nitrophenyl)(1H-pyrrolo[2,3-b]pyridin-3-yl)methanol] | 256 µg/mL | < 1020 µg/mL | < 1020 µg/mL | < 1020 µg/mL | < 1020 µg/mL | < 1020 µg/mL | <256 µg/mL | <256 µg/mL | <256 µg/mL |
| OC(c1cccc(Br)c1)c1c[nH]c2cnccc12 (stereo not drawn) [Compound 3Br-6aza-OH, (3-bromophenyl)(1H-pyrrolo[2,3-c]pyridin-3-yl)methanol] | 1 µg/mL | < 1020 µg/mL | < 1020 µg/mL | < 1020 µg/mL | < 1020 µg/mL | < 1020 µg/mL | 32 µg/mL | 4 µg/mL | 4 µg/mL |
| Nc1cccc(C(O)c2c[nH]c3cnccc23)c1 (stereo not drawn) [Compound 3NH2-6aza-OH, (3-aminophenyl)(1H-pyrrolo[2,3-c]pyridin-3-yl)methanol] | 8 µg/mL | < 1020 µg/mL | < 1020 µg/mL | < 1020 µg/mL | < 1020 µg/mL | < 1020 µg/mL | 32 µg/mL | 64 µg/mL | 32 µg/mL |
| O=[N+]([O-])c1cccc(C(O)c2c[nH]c3cnccc23)c1 (stereo not drawn) [Compound 3NO2-6aza-OH, (3-nitrophenyl)(1H-pyrrolo[2,3-c]pyridin-3-yl)methanol] | 64 µg/mL | < 1020 µg/mL | < 1020 µg/mL | < 1020 µg/mL | < 1020 µg/mL | < 1020 µg/mL | <256 µg/mL | 128 µg/mL | 256 µg/mL |
| O=[N+]([O-])c1cccc(C(O)c2c[nH]c3ncccc23)c1 (stereo not drawn) [Compound 3NO2-7aza-OH, (3-nitrophenyl)(1H-pyrrolo[2,3-b]pyridin-3-yl)methanol] | <256 µg/mL | < 1020 µg/mL | < 1020 µg/mL | < 1020 µg/mL | < 1020 µg/mL | < 1020 µg/mL | <256 µg/mL | <256 µg/mL | <256 µg/mL |
| OC(c1ccc(Br)cc1)c1c[nH]c2cnccc12 (stereo not drawn) [Compound 4Br-6aza-OH, (4-bromophenyl)(1H-pyrrolo[2,3-c]pyridin-3-yl)methanol] | 32 µg/mL | < 1020 µg/mL | < 1020 µg/mL | < 1020 µg/mL | < 1020 µg/mL | < 1020 µg/mL | 16 µg/mL | 4 µg/mL | 8 µg/mL |
| Nc1ccc(C(O)c2c[nH]c3cnccc23)cc1 (stereo not drawn) [Compound 4NH2-6aza-OH, (4-aminophenyl)(1H-pyrrolo[2,3-c]pyridin-3-yl)methanol] | 8 µg/mL | < 1020 µg/mL | < 1020 µg/mL | < 1020 µg/mL | < 1020 µg/mL | < 1020 µg/mL | 128 µg/mL | 64 µg/mL | 16 µg/mL |
| O=[N+]([O-])c1ccc(C(O)c2c[nH]c3cnccc23)cc1 (stereo not drawn) [Compound 4NO2-6aza-OH, (4-nitrophenyl)(1H-pyrrolo[2,3-c]pyridin-3-yl)methanol] | 128 µg/mL | < 1020 µg/mL | < 1020 µg/mL | < 1020 µg/mL | < 1020 µg/mL | < 1020 µg/mL | <256 µg/mL | 128 µg/mL | 128 µg/mL |
| O=[N+]([O-])c1ccc(C(O)c2c[nH]c3ncccc23)cc1 (stereo not drawn) [Compound 4NO2-7aza-OH, (4-nitrophenyl)(1H-pyrrolo[2,3-b]pyridin-3-yl)methanol] | 32 µg/mL | < 1020 µg/mL | < 1020 µg/mL | < 1020 µg/mL | < 1020 µg/mL | < 1020 µg/mL | <256 µg/mL | <256 µg/mL | <256 µg/mL |
| Oc1ccc(C(O)c2c[nH]c3cnccc23)cc1 (stereo not drawn) [Compound 4OH-6aza-OH, 4-(hydroxy(1H-pyrrolo[2,3-c]pyridin-3-yl)methyl)phenol] | 32 µg/mL | < 1020 µg/mL | < 1020 µg/mL | < 1020 µg/mL | < 1020 µg/mL | < 1020 µg/mL | 256 µg/mL | <256 µg/mL | <256 µg/mL |
| Oc1ccc(C(O)c2c[nH]c3ncccc23)cc1 (stereo not drawn) [Compound 4OH-7aza-OH, 4-(hydroxy(1H-pyrrolo[2,3-b]pyridin-3-yl)methyl)phenol] | 128 µg/mL | < 1020 µg/mL | < 1020 µg/mL | < 1020 µg/mL | < 1020 µg/mL | < 1020 µg/mL | <256 µg/mL | <256 µg/mL | <256 µg/mL |
| O=Cc1cccc(C(O)c2c[nH]c3cnccc23)c1 (stereo not drawn) [ISO-6aza-OH, 3-(hydroxy(1H-pyrrolo[2,3-c]pyridin-3-yl)methyl)benzaldehyde] | 64 µg/mL | < 1020 µg/mL | < 1020 µg/mL | < 1020 µg/mL | < 1020 µg/mL | < 1020 µg/mL | <256 µg/mL | <256 µg/mL | <256 µg/mL |
